In ChEMBL document CHEMBL1201862, “PubChem BioAssay data set” (2004):
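In this assay, cells in 96-well plates receive the compound at five concentrations for 48 hours. Endpoints are linearly interpolated between the surrounding concentrations. GI50 is the concentration that inhibits growth by half.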 Calls of active or inactive are those of the source. No stated cut-off is given here; in the data, active = GI50 up to about 1.1 µM and inactive = higher.

How the values were obtained:
Experiment in all cases: growth of human tumour cells (NCI), 48 h
NCI-H226 = system: NCI-H226
HCC 2998 = system: HCC 2998
SF-539 = system: SF-539
DU-145 = system: DU-145
CAKI-1 = system: CAKI-1
M14 = system: M14
SNB-19 = system: SNB-19
RXF 393 = system: RXF 393
SF-295 = system: SF-295
HL-60 = system: HL-60
SK-MEL-28 = system: SK-MEL-28
EKVX = system: EKVX
SK-OV-3 = system: SK-OV-3
SN12C = system: SN12C
UACC-62 = system: UACC-62
HT-29 = system: HT-29
SK-MEL-2 = system: SK-MEL-2
OVCAR-4 = system: OVCAR-4
BT-549 = system: BT-549
CCRF-CEM = system: CCRF-CEM

Measured: GI50

Cc1csc(-c2cn(C)c3c2C(=O)C(=N)C=C3O)n1
inactive: NCI-H226 8.39 µM | HCC 2998 5 µM | SF-539 5.01 µM | DU-145 4.12 µM | CAKI-1 3.68 µM | M14 3.74 µM | SNB-19 7.38 µM | RXF 393 54.1 µM | SF-295 2.37 µM | HL-60 1.58 µM | SK-MEL-28 20.3 µM | EKVX 3.37 µM | SK-OV-3 21.2 µM | SN12C 39.1 µM | UACC-62 7.59 µM | HT-29 8.69 µM | SK-MEL-2 19.8 µM | OVCAR-4 > 100 µM | BT-549 44.9 µM | CCRF-CEM 5.31 µM

C[Si](C)(C)C#CCOC=C1CC1
inactive: NCI-H226 > 100 µM | HCC 2998 > 100 µM | SF-539 > 100 µM | DU-145 > 100 µM | CAKI-1 > 100 µM | M14 > 100 µM | SNB-19 > 100 µM | RXF 393 3.45 µM | SF-295 > 100 µM | HL-60 35.2 µM | SK-MEL-28 > 100 µM | EKVX > 100 µM | SK-OV-3 > 100 µM | SN12C > 100 µM | UACC-62 > 100 µM | HT-29 > 100 µM | SK-MEL-2 > 100 µM | OVCAR-4 > 100 µM | BT-549 > 100 µM | CCRF-CEM 34.4 µM

c1ccc(C(c2cccc3c2ccc2ccccc23)C(c2ccccc2)c2cccc3c2ccc2ccccc23)cc1 (configuration not stated)
inactive: NCI-H226 > 100 µM | HCC 2998 > 100 µM | SF-539 > 100 µM | DU-145 > 100 µM | CAKI-1 > 100 µM | M14 > 100 µM | SNB-19 > 100 µM | RXF 393 > 100 µM | SF-295 > 100 µM | HL-60 65.8 µM | SK-MEL-28 > 100 µM | EKVX > 100 µM | SK-OV-3 > 100 µM | SN12C > 100 µM | UACC-62 > 100 µM | HT-29 > 100 µM | SK-MEL-2 > 100 µM | OVCAR-4 > 100 µM | BT-549 > 100 µM | CCRF-CEM > 100 µM

COc1ccc(C(=O)CCN(C)C)c2ccccc12
inactive: NCI-H226 > 100 µM | HCC 2998 18 µM | SF-539 14.9 µM | DU-145 28.2 µM | CAKI-1 6.78 µM | M14 34.3 µM | SNB-19 > 93.5 µM | RXF 393 21.3 µM | SF-295 > 100 µM | HL-60 15.6 µM | SK-MEL-28 24.8 µM | EKVX 24.7 µM | SK-OV-3 > 100 µM | SN12C 21.5 µM | UACC-62 > 41.4 µM | HT-29 25.7 µM | SK-MEL-2 19.5 µM | OVCAR-4 24.3 µM | BT-549 19.3 µM | CCRF-CEM 2.79 µM

CCCCCCCCCCCC(=O)N(CCCCCCCCC)CC(O)C(O)C(OC1OC(CO)C(O)C(O)C1O)C(O)CO (configuration not stated)
inactive: NCI-H226 20.4 µM | HCC 2998 16.9 µM | SF-539 21.4 µM | DU-145 18.5 µM | CAKI-1 20.7 µM | M14 19.4 µM | SNB-19 20.6 µM | RXF 393 20.7 µM | SF-295 18.4 µM | HL-60 25.6 µM | SK-MEL-28 19.2 µM | EKVX 17.3 µM | SK-OV-3 > 10 µM | SN12C 19.1 µM | UACC-62 17.7 µM | HT-29 19.2 µM | SK-MEL-2 19.7 µM | OVCAR-4 21 µM | BT-549 19.4 µM | CCRF-CEM 24 µM

Cn1c(-c2ccccc2)cc(-c2cccs2)c1-c1ccsc1
inactive: NCI-H226 > 100 µM | HCC 2998 > 100 µM | SF-539 > 100 µM | DU-145 > 100 µM | CAKI-1 > 100 µM | M14 > 100 µM | SNB-19 > 100 µM | RXF 393 > 100 µM | SF-295 > 100 µM | HL-60 > 100 µM | EKVX > 100 µM | SK-OV-3 > 100 µM | SN12C > 100 µM | UACC-62 > 100 µM | HT-29 > 100 µM | SK-MEL-2 > 100 µM | OVCAR-4 > 100 µM | BT-549 > 100 µM | CCRF-CEM > 100 µM

COC1(OC)C2C=CC1C([C@](C)(N)CO)C2 (some centres not stated)
inactive: NCI-H226 > 100 µM | HCC 2998 > 100 µM | SF-539 > 100 µM | DU-145 > 100 µM | CAKI-1 > 100 µM | M14 > 100 µM | SNB-19 > 100 µM | RXF 393 > 100 µM | SF-295 > 100 µM | HL-60 > 100 µM | SK-MEL-28 > 100 µM | EKVX > 100 µM | SK-OV-3 > 100 µM | SN12C > 100 µM | UACC-62 > 100 µM | HT-29 > 100 µM | OVCAR-4 > 100 µM | BT-549 > 100 µM | CCRF-CEM > 100 µM

OC[C@H]1CCCC1O (some centres not stated)
inactive: NCI-H226 > 100 µM | HCC 2998 > 100 µM | SF-539 > 100 µM | DU-145 > 100 µM | CAKI-1 > 100 µM | M14 > 100 µM | SNB-19 > 100 µM | RXF 393 > 100 µM | SF-295 > 100 µM | HL-60 > 100 µM | SK-MEL-28 > 100 µM | SN12C > 100 µM | UACC-62 > 100 µM | HT-29 > 100 µM | SK-MEL-2 > 100 µM | OVCAR-4 > 100 µM | BT-549 > 100 µM | CCRF-CEM > 100 µM

NC(CCCCNc1ccn(C2OC(CO)C(O)C2O)c(=O)n1)C(=O)O (configuration not stated)
inactive: NCI-H226 > 100 µM | HCC 2998 76.6 µM | SF-539 > 100 µM | DU-145 > 100 µM | CAKI-1 > 100 µM | M14 37.8 µM | SNB-19 > 100 µM | RXF 393 > 100 µM | SF-295 30.6 µM | HL-60 > 100 µM | SK-MEL-28 > 100 µM | EKVX > 100 µM | SN12C > 100 µM | UACC-62 > 100 µM | SK-MEL-2 77.8 µM | OVCAR-4 > 100 µM | BT-549 > 100 µM | CCRF-CEM 35 µM

O=C1CSC2(CC(/C=C/c3ccccc3)=NN2c2cccc(S(=O)(=O)O)c2)N1c1nc2ccccc2s1 (configuration not stated)
inactive: NCI-H226 37.5 µM | HCC 2998 59.4 µM | SF-539 39.7 µM | DU-145 25.4 µM | CAKI-1 38.5 µM | M14 41.3 µM | SNB-19 21.5 µM | RXF 393 22.1 µM | HL-60 27 µM | SK-MEL-28 62.4 µM | EKVX 60.4 µM | SN12C 28.7 µM | UACC-62 18.9 µM | HT-29 38.3 µM | SK-MEL-2 22.6 µM | OVCAR-4 20.9 µM | BT-549 24.8 µM | CCRF-CEM 19.1 µM
